Values of other authors in article PMC3945118 (Journal of molecular neuroscience : MN, 2013).

Test system: rotarod performance
Conditions: test not specified; no reference given

Compound: CCCC(CCC)C(=O)O [valproic acid]
- Therapeutic Index (TI) of known anticonvulsant: ~1
